Active and inactive are the calls of the source. The calls are words filed in the database; no cut-off is given here.
What was measured:
[1] = Metabolic stability in mouse liver microsomes assessed as intrinsic clearance; type: ADME, Microsome; settings: read-out: CLH
[2] = target: T1, Alpha-1D adrenergic receptor (Homo sapiens, UniProt P25100); test: Binding affinity to human alpha1D-adrenoceptor
T1 sequence (P25100 whole entry): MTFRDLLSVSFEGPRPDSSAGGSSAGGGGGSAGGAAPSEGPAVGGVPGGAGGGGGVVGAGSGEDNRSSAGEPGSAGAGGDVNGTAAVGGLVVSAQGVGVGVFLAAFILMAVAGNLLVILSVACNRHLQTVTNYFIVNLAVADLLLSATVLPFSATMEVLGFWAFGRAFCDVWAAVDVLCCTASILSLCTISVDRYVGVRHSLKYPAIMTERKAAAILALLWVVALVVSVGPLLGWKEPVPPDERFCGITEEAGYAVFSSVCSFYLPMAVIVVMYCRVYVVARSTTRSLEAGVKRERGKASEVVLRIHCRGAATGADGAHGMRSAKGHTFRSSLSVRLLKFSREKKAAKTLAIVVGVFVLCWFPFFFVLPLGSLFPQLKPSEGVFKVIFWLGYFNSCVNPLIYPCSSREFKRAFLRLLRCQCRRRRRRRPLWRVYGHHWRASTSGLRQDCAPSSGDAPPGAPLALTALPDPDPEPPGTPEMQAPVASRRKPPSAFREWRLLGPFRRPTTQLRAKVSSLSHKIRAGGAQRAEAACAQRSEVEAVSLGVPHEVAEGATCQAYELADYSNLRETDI

[3] = Metabolic stability in mouse liver microsomes assessed as elimination half life; type: ADME, Microsome
[4] = target: T2, Alpha-2C adrenergic receptor (Homo sapiens, UniProt P18825); test: Agonist activity at alpha2C-adrenoceptor (unknown origin) expressed in CHO-alpha2C-PKAcatEGFP cells assessed as increase in intracellular calcium level measured after 15 mins incubation by Micro automated microscopy; type: functional, cell-based
T2 sequence (P18825 whole entry): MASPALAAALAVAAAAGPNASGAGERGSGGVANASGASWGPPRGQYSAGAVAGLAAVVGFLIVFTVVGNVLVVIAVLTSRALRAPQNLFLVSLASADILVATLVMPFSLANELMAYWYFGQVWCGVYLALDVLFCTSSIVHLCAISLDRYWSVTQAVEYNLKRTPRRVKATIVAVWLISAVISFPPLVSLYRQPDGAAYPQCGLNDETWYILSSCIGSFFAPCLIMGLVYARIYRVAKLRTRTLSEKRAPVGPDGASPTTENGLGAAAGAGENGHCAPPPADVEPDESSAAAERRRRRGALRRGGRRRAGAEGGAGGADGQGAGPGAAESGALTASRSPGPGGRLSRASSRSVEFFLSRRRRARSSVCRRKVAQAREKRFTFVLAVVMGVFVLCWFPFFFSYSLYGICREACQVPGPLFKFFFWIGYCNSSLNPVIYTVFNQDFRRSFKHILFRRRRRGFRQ

[5] = target: T3, Alpha-1A adrenergic receptor (Homo sapiens, UniProt P35348)
T3 sequence (P35348 whole entry): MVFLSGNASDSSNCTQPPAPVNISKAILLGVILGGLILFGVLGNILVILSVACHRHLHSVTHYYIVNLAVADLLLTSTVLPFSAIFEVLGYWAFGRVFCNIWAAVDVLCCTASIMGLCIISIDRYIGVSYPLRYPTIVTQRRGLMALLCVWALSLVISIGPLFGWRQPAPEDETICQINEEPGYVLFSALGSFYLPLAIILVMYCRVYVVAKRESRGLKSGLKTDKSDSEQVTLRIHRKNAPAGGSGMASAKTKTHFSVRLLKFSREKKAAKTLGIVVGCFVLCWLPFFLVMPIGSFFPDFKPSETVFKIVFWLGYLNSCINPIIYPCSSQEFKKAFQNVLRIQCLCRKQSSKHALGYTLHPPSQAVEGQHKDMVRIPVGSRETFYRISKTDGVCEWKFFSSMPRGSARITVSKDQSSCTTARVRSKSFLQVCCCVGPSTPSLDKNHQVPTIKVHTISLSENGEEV
Description: Binding affinity to human alpha1A-adrenoceptor

[6] = target: T4, Alpha-2B adrenergic receptor (Homo sapiens, UniProt P18089); test: Agonist activity at human alpha2B-adrenoceptor
T4 sequence (P18089 whole entry): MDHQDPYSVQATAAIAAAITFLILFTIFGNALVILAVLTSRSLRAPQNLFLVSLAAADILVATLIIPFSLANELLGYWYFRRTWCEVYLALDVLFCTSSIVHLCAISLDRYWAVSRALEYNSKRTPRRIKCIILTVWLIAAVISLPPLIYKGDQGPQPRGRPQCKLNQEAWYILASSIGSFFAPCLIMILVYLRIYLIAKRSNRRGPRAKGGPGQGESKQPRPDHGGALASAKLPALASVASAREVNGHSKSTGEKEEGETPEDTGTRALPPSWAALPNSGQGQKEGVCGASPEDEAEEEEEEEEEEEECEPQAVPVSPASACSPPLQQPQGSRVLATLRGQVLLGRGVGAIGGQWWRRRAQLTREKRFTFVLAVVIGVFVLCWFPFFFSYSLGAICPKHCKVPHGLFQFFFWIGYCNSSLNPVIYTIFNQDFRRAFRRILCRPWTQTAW

[7] = target: T5, Alpha-1B adrenergic receptor (Homo sapiens, UniProt P35368); test: Binding affinity to human alpha1B-adrenoceptor
T5 sequence (P35368 whole entry): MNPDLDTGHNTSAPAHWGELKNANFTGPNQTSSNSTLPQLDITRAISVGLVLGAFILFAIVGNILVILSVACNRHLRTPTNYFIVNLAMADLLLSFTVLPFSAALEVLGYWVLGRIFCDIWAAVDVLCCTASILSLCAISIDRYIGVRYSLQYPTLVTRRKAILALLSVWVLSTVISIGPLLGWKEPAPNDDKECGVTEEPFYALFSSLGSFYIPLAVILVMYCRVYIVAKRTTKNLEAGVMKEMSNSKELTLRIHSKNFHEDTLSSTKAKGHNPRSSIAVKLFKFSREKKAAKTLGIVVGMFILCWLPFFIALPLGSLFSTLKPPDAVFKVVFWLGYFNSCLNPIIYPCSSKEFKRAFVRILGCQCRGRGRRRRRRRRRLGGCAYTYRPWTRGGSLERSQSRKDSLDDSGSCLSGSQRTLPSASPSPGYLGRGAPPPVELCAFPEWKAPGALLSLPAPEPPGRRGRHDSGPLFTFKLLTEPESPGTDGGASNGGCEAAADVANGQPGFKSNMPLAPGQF

[8] = target: T4, Alpha-2B adrenergic receptor; test: Agonist activity at alpha2B-adrenoceptor (unknown origin) expressed in U2OS-EGFP-NFAT2-alpha2B-AR cells assessed as increase in intracellular calcium level measured after 15 mins incubation by Micro automated microscopy; type: functional, cell-based
[9] = target: T3, Alpha-1A adrenergic receptor; test: Agonist activity at alpha1A-adrenoceptor (unknown origin) expressed in HEK293T cells assessed as fluorescence intensity measured after 30 mins by IP-one homogeneous time-resolved fluorescence assay; type: functional, cell-based
[10] = target: T2, Alpha-2C adrenergic receptor; test: Agonist activity at human alpha2C-adrenoceptor
[11] = target: T6, Alpha-2A adrenergic receptor (Homo sapiens, UniProt P08913); test: Agonist activity at human alpha2A adrenoceptor assessed as [35S]GTPgammaS binding by scintillation counting analysis; type: functional
T6 sequence (P08913 whole entry): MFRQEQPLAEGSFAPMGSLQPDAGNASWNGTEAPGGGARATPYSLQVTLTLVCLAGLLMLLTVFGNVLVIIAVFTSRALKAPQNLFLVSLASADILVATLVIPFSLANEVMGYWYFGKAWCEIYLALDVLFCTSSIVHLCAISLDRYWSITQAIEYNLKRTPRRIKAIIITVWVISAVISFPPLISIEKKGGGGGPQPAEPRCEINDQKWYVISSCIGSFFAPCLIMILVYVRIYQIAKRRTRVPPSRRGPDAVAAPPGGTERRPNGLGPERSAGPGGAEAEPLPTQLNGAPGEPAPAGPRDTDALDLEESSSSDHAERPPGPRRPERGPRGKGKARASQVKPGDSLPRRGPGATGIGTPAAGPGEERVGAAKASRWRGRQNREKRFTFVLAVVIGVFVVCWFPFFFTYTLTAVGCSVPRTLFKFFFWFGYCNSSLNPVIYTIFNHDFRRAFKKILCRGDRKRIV

[12] = tested on: Mus musculus; test: Hypnotic activity in ip dosed C57BL/6 mouse assessed as increase in immobility time; type: functional, organism-based
[13] = tested on: HEK293T; test: Agonist activity at alpha2A-adrenoceptor F427A mutant (unknown origin) expressed in HEK293T cells co-expressing pGloSensor-22F cAMP plasmid assessed as at 1 to 100 uM measured after 10 mins incubation by multiplate reader; type: cell-based; settings: Homo sapiens, dose 1-100 µM
[14] = tested on: Mus musculus; test: Hypnotic activity in ip dosed C57BL/6 mouse assessed as increase in loss of righting reflex (LORR)
[15] = target: T7, Adrenergic receptor alpha-2 (Homo sapiens, UniProt P08913+P18825+P18089); test: Binding affinity to alpha2-adrenoceptor (unknown origin); type: protein assay
T7 sequence (P08913 whole entry): T6 sequence (P08913 whole entry)
T7 sequence (P18825 whole entry): T2 sequence (P18825 whole entry)
T7 sequence (P18089 whole entry): T4 sequence (P18089 whole entry)

[16] = target: T8, Adrenergic receptor alpha-1 (Homo sapiens, UniProt P35348+P25100+P35368); test: Binding affinity to alpha1-adrenoceptor (unknown origin); type: protein assay
T8 sequence (P35348 whole entry): T3 sequence (P35348 whole entry)
T8 sequence (P25100 whole entry): T1 sequence (P25100 whole entry)
T8 sequence (P35368 whole entry): T5 sequence (P35368 whole entry)

[17] = Selectivity index, ratio of EC50 for alpha2A-adrenoceptor (unknown origin) to EC50 for alpha2B-adrenoceptor (unknown origin)
[18] = Selectivity index, ratio of EC50 for alpha2A-adrenoceptor (unknown origin) to EC50 for alpha1A-adrenoceptor (unknown origin)
[19] = Selectivity index, ratio of EC50 for alpha2A-adrenoceptor (unknown origin) to EC50 for alpha2C-adrenoceptor (unknown origin)
[20] = target: T6, Alpha-2A adrenergic receptor
Description: Agonist activity at alpha2A-adrenoceptor (unknown origin) expressed in CHO-alpha2-AR-PKAcatEGFP cells assessed as intracellular cAMP concentration by measuring PKA translocation after 15 mins incubation by PKA redistribution assay

[21] = tested on: HEK293T; test: Agonist activity at alpha2A-adrenoceptor D128A mutant (unknown origin) expressed in HEK293T cells co-expressing pGloSensor-22F cAMP plasmid assessed as at 0.000001 to 100 uM measured after 10 mins incubation by multiplate reader; type: cell-based; settings: Homo sapiens, dose lower 1e-06 µM, dose upper 100.0 µM
[22] = tested on: HEK293T; test: Agonist activity at alpha2A-adrenoceptor Y409A mutant (unknown origin) expressed in HEK293T cells co-expressing pGloSensor-22F cAMP plasmid assessed as at 0.000001 to 100 uM measured after 10 mins incubation by multiplate reader; type: cell-based; settings: Homo sapiens, dose lower 1e-06 µM, dose upper 100.0 µM
[23] = tested on: Mus musculus; test: Hypnotic activity in C57BL/6 mouse assessed as increase in loss of righting reflex (LORR) in presence of BRL44408 alpha2A-adrenoceptor antagonist at 0.60 mg/kg, ip; type: functional, organism-based; settings: dose 0.6 mg/kg
[24] = tested on: Mus musculus; test: Hypnotic activity in C57BL/6 mouse assessed as increase in loss of righting reflex (LORR) in presence of atipamezole alpha2-adrenoceptor antagonist at 0.60 mg/kg, ip; type: functional, organism-based; settings: dose 0.6 mg/kg
[25] = tested on: Mus musculus; test: Hypnotic activity in C57BL/6 mouse assessed as increase in loss of righting reflex (LORR) in presence of ARC239 alpha2B-adrenoceptor antagonist at 0.60 mg/kg, ip; type: functional, organism-based; settings: dose 0.6 mg/kg
[26] = tested on: Mus musculus; test: Hypnotic activity in C57BL/6 mouse assessed as increase in loss of righting reflex (LORR) in presence of JP1302 alpha2C-adrenoceptor antagonist at 0.60 mg/kg, ip; type: functional, organism-based; settings: dose 0.6 mg/kg
[27] = tested on: Mus musculus; test: Hypnotic activity in C57BL/6 mouse assessed as increase in induction time righting reflex (LORR) in presence of atipamezole alpha2-adrenoceptor antagonist at 0.60 mg/kg, ip; type: functional, organism-based; settings: dose 0.6 mg/kg

Row | SMILES | microsomal CLint [1] | half-life [3] | EC50 [4] | EC50 [8] | EC50 [9] | Activity [12] | Activity [13] | ED50 [14] | Activity [21] | Activity [22] | further results
1 | Cc1cccc([C@H](C)c2cnc[nH]2)c1C [DEXMEDETOMIDINE] | 8.89 µL/min/mg | 156 min | 0.00537 µM | 0.00191 µM | 0.013 µM | – | – | – | – | – | Ki [2]: 1.23 µM; Ki [5]: 1.32 µM; EC50 [6]: 0.00331 µM; Ki [7]: 9.12 µM; EC50 [10]: 0.0288 µM
2 | CC(c1cccc(C2(C(F)(F)F)N=N2)c1)c1c[nH]cn1 (centres undefined) | – | – | – | – | – | – | – | – | – | – | pEC50 [11]: 6.53
3 | Cc1cccc([C@H](C)c2c[nH]cn2)c1C [DEXMEDETOMIDINE] | – | – | – | – | – | Dose-Dependent Effect | inactive | 0.11 mg/kg | – | – | –
4 | Cc1cccc2c1CCC2c1c[nH]cn1 (centres undefined) | – | – | – | – | – | – | – | – | – | – | pKi [15]: 8.06; pKi [16]: 7.14
5 | Brc1cccc2c1OCC=C2c1c[nH]cn1 | 249 µL/min/mg | 5.56 min | 0.0372 µM | 0.186 µM | 0.032 µM | Dose-Dependent Effect | inactive | 1.54 mg/kg | inactive | inactive | Selectivity Index [17]: 238; Selectivity Index [18]: 41; Selectivity Index [19]: 48; EC50 [20]: 0.00078 µM
6 | Brc1cccc2c1OCCC2c1c[nH]cn1 (centres undefined) | 29 µL/min/mg | 47.8 min | 0.0213 µM | 0.163 µM | 0.00255 µM | Dose-Dependent Effect | – | – | inactive | inactive | Activity [23]: inactive; Activity [24]: inactive; Activity [25]: Active; Activity [26]: Active; Activity [27]: inactive; Activity ([13]; filed as agonist): Active

Source: ChEMBL document CHEMBL5500407, “Designing Chromane Derivatives as α2A-Adrenoceptor Selective Agonists via Conformation Constraint” (J Med Chem, 2024)
